Reference: US9333178B2, “Essential oil microparticles and uses thereof for preventing enteric diseases” (Universidade Estadual de Campinas—UNICAMP, priority 2012, dated 2016)

What was measured:
U251 (glioma, CNS) = experiment: In vitro cytotoxicity, SRB assay; assay type: cell-based, human
Source text: Based on the results, growth rate graphics from the sample concentration for each of the tested strain were generated. Three effective concentrations called GI50 (growth inhibition, the concentration required to disrupt 50% cell growth), TGI (total growth inhibition, the concentration required for 0% of cell growth) and LC50 (lethal concentration, concentration required for 50% cell death) could be calculated by nonlinear regression, sigmoidal, using 8.0 Origin software.
In this model, one way to infer the growth rate is by spectrophotometric reading of the absorbance of cellular proteins stained with sulforhodamine B (SRB), an anionic dye staining bright pink. This dye can bind to protein terminations of basic amino acids in living cells fixed with Trichloroacetic acid (TCA), thus being an independent assay of cell metabolism and allowing a sensitive measurement of protein linearly with the number of cells in culture. […]

786-0 (kidney) = experiment: In vitro cytotoxicity, SRB assay; assay type: cell-based, human
Procedure: (§1) The in vitro cytotoxicity of essential oils (present invention) were evaluated against two normal cell lines (VERO—African green monkey kidney epithelial cells and HaCat—immortal human keratinocytes) and against a panel of human tumor cells.
(§2) Based on the results, growth rate graphics from the sample concentration for each of the tested strain were generated.
(§3) The test results obtained are shown in FIG. 1 (present invention) and table 2. In this model, one way to infer the growth rate is by spectrophotometric reading of the absorbance of cellular proteins stained with sulforhodamine B (SRB), an anionic dye staining bright pink. This dye can bind to protein terminations of basic amino acids in living cells fixed with Trichloroacetic acid (TCA), thus being an independent assay of cell metabolism and allowing a sensitive measurement of protein linearly with the number of cells in culture.
(§4) This test allows us to evaluate the antitumor activity through exposure of human tumor cells in exponential growth phase at different concentrations of the sample and whether that exposure led to an interruption in the growth rate without cell death ([…]) or caused the death cell (cytocidal activity). To measure the activity, an effective concentration called TGI (total growth inhibition, concentration required for 0% cell growth occurs) (Shoemaker, 2006) was calculated.
(§5) Chemotherapy doxorubicin was used as positive control. In addition to a standard of comparison, the main purpose of using this control was to verify that all employed cell lines kept the profile of response to chemotherapy. This is because with successive passages necessary for the maintenance of cell culture, there is the possibility of changing the lineage in culture, and this mutation could be detected by the change in response against doxorubicin. Furthermore, in order to minimize the occurrence of mutations, the cell lines are perpetuated only by up to 20 passages, after which they are replaced by new cells of the same strain that were maintained frozen.

[1] = tested on: HaCat (keratinocyte, immortalized normal cell); experiment: In vitro cytotoxicity, SRB assay; assay type: cell-based, human; settings: normal cell line
Procedure: as §1, §2, §3, §4, §5

MCF-7 (breast) = experiment: In vitro cytotoxicity, SRB assay; assay type: cell-based, human
Procedure: as §1, §2, §3, §4, §5

[2] = tested on: NCI-ADR/RES (ovary, with multidrug resistant phenotype); experiment: In vitro cytotoxicity, SRB assay; assay type: cell-based, human
Procedure: as §1, §2, §3, §4, §5

[3] = tested on: NCI-H460 (lung, non-small cells); experiment: In vitro cytotoxicity, SRB assay; assay type: cell-based, human
Procedure: as §1, §2, §3, §4, §5

[4] = tested on: panel of human tumor cells; experiment: In vitro cytotoxicity, SRB assay, mean over tumor lines; assay type: cell-based; settings: arithmetic mean of the TGI values for tumor lines
Procedure: as §1, §2
as §3, with “culture. […]” for “culture.”
Chemotherapy doxorubicin was used as positive control. […] This is because with successive passages necessary for the maintenance of cell culture, there is the possibility of changing the lineage in culture, and this mutation could be detected by the change in response against doxorubicin. […]

COc1cccc2c1C(=O)c1c(O)c3c(c(O)c1C2=O)C[C@@](O)(C(=O)CO)C[C@@H]3O[C@H]1C[C@H](N)[C@H](O)[C@H](C)O1 [Doxorubicin]
1.24 µg/mL: TGI (Total Growth Inhibition) (U251 (glioma, CNS))
>25 µg/mL: TGI (Total Growth Inhibition) (786-0 (kidney)) | TGI (Total Growth Inhibition) [1] | TGI (Total Growth Inhibition) (MCF-7 (breast)) | TGI (Total Growth Inhibition) [2] | TGI (Total Growth Inhibition) [3] | TGI Average [4]
